The subject of assay [1] is NCI-H358 cells (express KRas G12C), Phospho-ERK. As to the kind of experiment: Cellular inhibition of KRas G12C: Phospho-ERK in NCI-H358 cells. To be noted: pERK(Thr202/Tyr204) normalized with GAPDH, NCI-H358 cells, 3 hours, read-out: IC50. In kind it is cell-based. Summed up:
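IC50 derived by 4-parameter fit of GAPDH-normalized pERK(Thr202/Tyr204) signal, as percent of DMSO control. Signal came from in-cell immunodetection with infrared secondaries after 3 h compound exposure of KRas G12C NCI-H358 cells at 0.5% DMSO.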

The target of the next assay is KRas G12C (Homo sapiens, UniProt P01116, C118S/C51S/C80L/G12C). As to the kind of experiment: KRas G12C Modification Assay (LCMS detection of covalent adduct). It is filed as binding. To be noted: normalized percent of control; tested at 5 μM concentration for 3 hours. The gist of the method:
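Cys-light KRas G12C mutant protein incubated with compound in K-Ras assay buffer, reactions quenched at set time points with 25 mM acetic acid and analysed by intact-protein LC/MS on a C-3 column. Deconvoluted mass heights expressed as percent of control (POC) relative to compound-free protein.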

pIC50: −log10 of the molar value. Read-outs that look alike come from different tables or passages of the source. Some results are limits rather than exact numbers.

As to `C=CC(=O)N1CCN(c2nc(OC[C@@H]3CCCN3C)nc3c2CCN(c2cncc(Cl)c2C(F)(F)F)C3)C[C@@H]1CC#N` [Example 385, 2-((S)-1-acryloyl-4-(7-(5-chloro-4-(trifluoromethyl)pyridin-3-yl)-2-(((S)-1-methylpyrrolidin-2-yl)methoxy)-5,6,7,8-tetrahydropyrido[3,4-d]pyrimidin-4-yl)piperazin-2-yl)acetonitrile], in assay [1] (Homo sapiens, NCI-H358, 3 h), the pIC50 is 6.00 to 10.00. At KRas G12C, the POC entry is given as “C (“C”>50% POC)”.

`C=CC(=O)N1CCN(c2nc(OC[C@@H]3C[C@@H](F)CN3C(C)C)nc3c2CCN(c2cncc(F)c2C(F)(F)F)C3)C[C@@H]1CC#N` [Example 386, 2-((S)-1-acryloyl-4-(2-(((2S,4R)-4-fluoro-1-isopropylpyrrolidin-2-yl)methoxy)-7-(5-fluoro-4-(trifluoromethyl)pyridin-3-yl)-5,6,7,8-tetrahydropyrido[3,4-d]pyrimidin-4-yl)piperazin-2-yl)acetonitrile]: the negative logarithm of the IC50 (pIC50) in assay [1] (Homo sapiens) was 6.00 to 10.00. In addition, on KRas G12C, the POC result is “C (“C”>50% POC)”.

`C=CC(=O)N1CCN(c2nc(OC[C@@H]3CCCN3C)nc3c2CCN(c2cncc(Cl)c2C)C3)C[C@@H]1CC#N` [Example 387, 2-((S)-1-acryloyl-4-(7-(5-chloro-4-methylpyridin-3-yl)-2-(((S)-1-methylpyrrolidin-2-yl)methoxy)-5,6,7,8-tetrahydropyrido[3,4-d]pyrimidin-4-yl)piperazin-2-yl)acetonitrile]: the negative logarithm of the IC50 (pIC50) in assay [1] (Homo sapiens, NCI-H358, 3 h) was 6.00 to 10.00. Also, the POC result at KRas G12C is “C (“C”>50% POC)”.

For the compound `C=CC(=O)N1CCN(c2nc(OC[C@@H]3CCCN3C)nc3c2CCN(c2cccc(F)c2C)C3)C[C@@H]1CC#N` [Example 388, 2-((S)-1-acryloyl-4-(7-(3-fluoro-2-methylphenyl)-2-(((S)-1-methylpyrrolidin-2-yl)methoxy)-5,6,7,8-tetrahydropyrido[3,4-d]pyrimidin-4-yl)piperazin-2-yl)acetonitrile], in assay [1] (Homo sapiens, NCI-H358, 3 h), the pIC50 is 6.00 to 10.00. Besides, the POC result at KRas G12C was “C (“C”>50% POC)”.

For `CC#CC(=O)N1CCN(c2nc(OC[C@@H]3CCCN3C)nc3c2CCN(c2cccc(C)c2C)C3)C[C@@H]1CC#N` [Example 389, 2-((S)-1-(but-2-ynoyl)-4-(7-(2,3-dimethylphenyl)-2-(((S)-1-methylpyrrolidin-2-yl)methoxy)-5,6,7,8-tetrahydropyrido[3,4-d]pyrimidin-4-yl)piperazin-2-yl)acetonitrile], in assay [1] (Homo sapiens, NCI-H358, 3 h), the negative-log IC50 (pIC50) is < 6.00. The POC entry on KRas G12C is on record as “C (“C”>50% POC)”.

Take `C=CC(=O)N1CCN(c2nc(OC[C@@H]3[C@@H](O)CCN3C)nc3c2CCN(c2cccc4ccccc24)C3)C[C@@H]1CC#N` [Example 390, 2-((S)-1-acryloyl-4-(2-(((2R,3S)-3-hydroxy-1-methylpyrrolidin-2-yl)methoxy)-7-(naphthalen-1-yl)-5,6,7,8-tetrahydropyrido[3,4-d]pyrimidin-4-yl)piperazin-2-yl)acetonitrile]: the pIC50 in assay [1] (Homo sapiens, NCI-H358, 3 h) was 6.00 to 10.00. For the same compound, the POC result at KRas G12C is “C (“C”>50% POC)”.

In the case of `CC#CC(=O)N1CCN(c2nc(OC[C@@H]3CCCN3C)nc3c2CCN(c2cccc4cccc(Cl)c24)C3)C[C@@H]1CC#N` [Example 391, 2-((S)-1-(but-2-ynoyl)-4-(7-(8-chloronaphthalen-1-yl)-2-(((S)-1-methylpyrrolidin-2-yl)methoxy)-5,6,7,8-tetrahydropyrido[3,4-d]pyrimidin-4-yl)piperazin-2-yl)acetonitrile], the negative logarithm of the IC50 (pIC50) in assay [1] (Homo sapiens, NCI-H358, 3 h) was 6.00 to 10.00. Also, the POC entry at KRas G12C is “C (“C”>50% POC)”.

`C=CC(=O)N1CCN(c2nc(OC[C@@H]3CCCN3C)nc3c2CCN(c2cccc(C)c2C)C3)C[C@@H]1CC#N` [Example 393, 2-((S)-1-acryloyl-4-(7-(2,3-dimethylphenyl)-2-(((S)-1-methylpyrrolidin-2-yl)methoxy)-5,6,7,8-tetrahydropyrido[3,4-d]pyrimidin-4-yl)piperazin-2-yl)acetonitrile]: the pIC50 in assay [1] (Homo sapiens, NCI-H358, 3 h) was 6.00 to 10.00. Moreover, at KRas G12C, the POC entry is on record as “C (“C”>50% POC)”.

Regarding `C=CC(=O)N1CCN(c2nc(OC[C@]3(C)CCCN3C)nc3c2CCN(c2cccc4ccccc24)C3)CC1CC#N` (stereo partly drawn) [Example 394, 2-(1-acryloyl-4-(2-(((S)-1,2-dimethylpyrrolidin-2-yl)methoxy)-7-(naphthalen-1-yl)-5,6,7,8-tetrahydropyrido[3,4-d]pyrimidin-4-yl)piperazin-2-yl)acetonitrile], the pIC50 in assay [1] (Homo sapiens, NCI-H358, 3 h) is 6.00 to 10.00. Also, on KRas G12C, the POC result is recorded as “C (“C”>50% POC)”.

For the compound `C=CC(=O)N1CCN(c2nc(OC[C@@H]3CCCN3CC3CC3)nc3c2CCN(c2cccc4ccccc24)C3)CC1CC#N` (stereo partly drawn) [Example 395, 2-(1-acryloyl-4-(2-(((S)-1-(cyclopropylmethyl)pyrrolidin-2-yl)methoxy)-7-(naphthalen-1-yl)-5,6,7,8-tetrahydropyrido[3,4-d]pyrimidin-4-yl)piperazin-2-yl)acetonitrile], the pIC50 in assay [1] (Homo sapiens, NCI-H358, 3 h) is 6.00 to 10.00. Also, the POC result at KRas G12C is on record as “C (“C”>50% POC)”.

As for `C=CC(=O)N1CCN(c2nc(OCC(C)(C)N(C)C)nc3c2CCN(c2cccc4ccccc24)C3)CC1CC#N` (stereo not shown) [Example 396, 2-(1-acryloyl-4-(2-(2-(dimethylamino)-2-methylpropoxy)-7-(naphthalen-1-yl)-5,6,7,8-tetrahydropyrido[3,4-d]pyrimidin-4-yl)piperazin-2-yl)acetonitrile], the negative-log IC50 (pIC50) in assay [1] was 6.00 to 10.00. The POC result on KRas G12C is reported as “C (“C”>50% POC)”.

As to `C=CC(=O)N1CCN(c2nc(OC[C@@H]3CCCN3CC(=O)N(C)C)nc3c2CCN(c2cccc4ccccc24)C3)CC1CC#N` (stereo partly drawn) [Example 397, 2-((2S)-2-(((4-(4-acryloyl-3-(cyanomethyl)piperazin-1-yl)-7-(naphthalen-1-yl)-5,6,7,8-tetrahydropyrido[3,4-d]pyrimidin-2-yl)oxy)methyl)pyrrolidin-1-yl)-N,N-dimethylacetamide], the negative logarithm of the IC50 (pIC50) in assay [1] (Homo sapiens, NCI-H358, 3 h) was 6.00 to 10.00. Also, the POC result at KRas G12C was “C (“C”>50% POC)”.

In the case of `C=CC(=O)N1CCN(c2nc(OC[C@@H]3CCCN3CC)nc3c2CCN(c2cccc4ccccc24)C3)C[C@@H]1CC#N` [Example 399, 2-((S)-1-acryloyl-4-(2-(((S)-1-ethylpyrrolidin-2-yl)methoxy)-7-(naphthalen-1-yl)-5,6,7,8-tetrahydropyrido[3,4-d]pyrimidin-4-yl)piperazin-2-yl)acetonitrile], the pIC50 in assay [1] (Homo sapiens, NCI-H358, 3 h) is 6.00 to 10.00. The POC entry on KRas G12C is recorded as “C (“C”>50% POC)”.

As for `CCN1CCC[C@H]1COc1nc2c(c(N3CCN(C(=O)/C=C/CN(C)C)[C@@H](CC#N)C3)n1)CCN(c1cccc3ccccc13)C2` [Example 400, 2-((S)-1-((E)-4-(dimethylamino)but-2-enoyl)-4-(2-(((S)-1-ethylpyrrolidin-2-yl)methoxy)-7-(naphthalen-1-yl)-5,6,7,8-tetrahydropyrido[3,4-d]pyrimidin-4-yl)piperazin-2-yl)acetonitrile], the negative logarithm of the IC50 (pIC50) in assay [1] (Homo sapiens, NCI-H358, 3 h) is 6.00 to 10.00. Besides, on KRas G12C, the POC entry is “C (“C”>50% POC)”.

`C=CC(=O)N1CCN(c2nc(OC[C@@H]3CCCN3CC(=O)N(C)C)nc3c2CCN(c2cccc4ccccc24)C3)C[C@@H]1CC#N` [Example 401, 2-((S)-2-(((4-((S)-4-acryloyl-3-(cyanomethyl)piperazin-1-yl)-7-(naphthalen-1-yl)-5,6,7,8-tetrahydropyrido[3,4-d]pyrimidin-2-yl)oxy)methyl)pyrrolidin-1-yl)-N,N-dimethylacetamide]: the pIC50 in assay [1] (Homo sapiens, NCI-H358, 3 h) is 6.00 to 10.00. Also, the POC entry on KRas G12C is given as “C (“C”>50% POC)”.

As for `C=CC(=O)N1CCN(c2nc(N3CC[C@H](N(C)C)C3)nc3c2CCN(c2cccc4ccccc24)C3)C[C@@H]1CC#N` [Example 402], the negative-log IC50 (pIC50) in assay [1] (Homo sapiens, NCI-H358, 3 h) was 6.00 to 10.00. Moreover, at KRas G12C, the POC result is given as “C (“C”>50% POC)”.

For `Cc1cccc(N2CCc3c(nc(OC[C@@H]4CCCN4C)nc3N3CCN(C(=O)/C=C/CN(C)C)[C@@H](CC#N)C3)C2)c1C` [Example 403, 2-((S)-1-((E)-4-(dimethylamino)but-2-enoyl)-4-(7-(2,3-dimethylphenyl)-2-(((S)-1-methylpyrrolidin-2-yl)methoxy)-5,6,7,8-tetrahydropyrido[3,4-d]pyrimidin-4-yl)piperazin-2-yl)acetonitrile], in assay [1] (Homo sapiens, NCI-H358, 3 h), the negative logarithm of the IC50 (pIC50) was 6.00 to 10.00. Also, the POC result at KRas G12C is recorded as “C (“C”>50% POC)”.

Take `C=CC(=O)N1CCN(c2nc(N3CCCC(N(C)C)C3)nc3c2CCN(c2cccc4ccccc24)C3)C[C@@H]1CC#N` (stereo partly drawn) [Example 404, 2-((2S)-1-acryloyl-4-(2-(3-(dimethylamino)piperidin-1-yl)-7-(naphthalen-1-yl)-5,6,7,8-tetrahydropyrido[3,4-d]pyrimidin-4-yl)piperazin-2-yl)acetonitrile]: in assay [1] (Homo sapiens, NCI-H358, 3 h), the negative-log IC50 (pIC50) is 6.00 to 10.00. Moreover, at KRas G12C, the POC entry is “C (“C”>50% POC)”.

Regarding `C=CC(=O)N1CCN(c2nc(OC[C@@H]3CCCN3C)nc3c2CCN(c2cccc(F)c2Cl)C3)C[C@@H]1CC#N` [Example 405, 2-((S)-1-acryloyl-4-(7-(2-chloro-3-fluorophenyl)-2-(((S)-1-methylpyrrolidin-2-yl)methoxy)-5,6,7,8-tetrahydropyrido[3,4-d]pyrimidin-4-yl)piperazin-2-yl)acetonitrile], the negative-log IC50 (pIC50) in assay [1] (Homo sapiens, NCI-H358, 3 h) was 6.00 to 10.00. Besides, the POC result at KRas G12C was “C (“C”>50% POC)”.

As for `C=CC(=O)N1CCN(c2nc(OC[C@@H]3CCCN3C)nc3c2CCN(c2cccc(F)c2F)C3)C[C@@H]1CC#N` [Example 406, 2-((S)-1-acryloyl-4-(7-(2,3-difluorophenyl)-2-(((S)-1-methylpyrrolidin-2-yl)methoxy)-5,6,7,8-tetrahydropyrido[3,4-d]pyrimidin-4-yl)piperazin-2-yl)acetonitrile], the negative-log IC50 (pIC50) in assay [1] (Homo sapiens, NCI-H358, 3 h) was < 6.00. Further, on KRas G12C, the POC result is “C (“C”>50% POC)”.

Usually pIC50 stands for −log10 of the IC50, conventionally taken in molar units.

(Values after patent US10125134B2 (Mirati Therapeutics, Inc., priority 2016, dated 2018).)
